Active and inactive are the calls of the source. The rule behind the calls is not given here.
Columns and labels:
Autotaxin [1] = target: T1, Autotaxin (Homo sapiens, UniProt Q13822); test: Inhibition of human ATX pre-incubated for 45 mins before fluorogenic substrate-3 addition and measured every minute for 30 mins by fluorescence based assay
Autotaxin [2] = target: T1, Autotaxin
Description: Inhibition of human ATX by LPC choline release assay

Mus musculus [3] = test: (§1) Protection against lung fibrosis in C57BL/6 mouse model of bleomycin sulfate-induced idiopathic pulmonary fibrosis assessed as induction of body weight recovery at 60 mg/kg, po dosed once daily for 31 days followed by bleomycin sulfate challenge on day 3; type: functional, organism-based
Mus musculus [4] = test: Protection against lung fibrosis in C57BL/6 mouse model of bleomycin sulfate-induced idiopathic pulmonary fibrosis assessed as induction of body weight recovery at 20 mg/kg, po dosed once daily for 31 days followed by bleomycin sulfate challenge on day 3; type: functional, organism-based
Mus musculus [5] = test: (§2) Ex-vivo inhibition of ATX lysoPLD activity in lung homogenate isolated from C57BL/6 mouse model of bleomycin sulfate-induced idiopathic pulmonary fibrosis assessed […] for artificial substrate FS-3 cleavage at 20 mg/kg, po dosed once daily for 31 days followed by bleomycin sulfate challenge on day 3 by fluorescence based assay; type: functional
Mus musculus [6] = test: as §2, with “60” for “20”; type: functional
Mus musculus [7] = test: as §2, with “20 to 60” for “20”; type: functional, organism-based
Mus musculus [8] = test: (§3) Protection against lung fibrosis in C57BL/6 mouse model of bleomycin sulfate-induced idiopathic pulmonary fibrosis assessed as induction of improvement in histopathological changes by measuring modified Ashcroft score level at 20 mg/kg, po dosed once daily for 31 days followed by bleomycin sulfate challenge on day 3 by hematoxylin and eosin staining based assay (reference value: 6.28); type: functional
Mus musculus [9] = test: as §3, with “lung texture” for “histopathological changes by measuring modified Ashcroft score level”, “assay” for “assay (reference value: 6.28)”; type: functional, organism-based
Mus musculus [10] = test: as §3, with “60” for “20”; type: functional
Mus musculus [11] = test: as §3, with “lung texture” for “histopathological changes by measuring modified Ashcroft score level”, “20 to 60” for “20”, “assay” for “assay (reference value: 6.28)”; type: functional, organism-based
Mus musculus [12] = test: as §3, with “lung texture” for “histopathological changes”, “60” for “20”, “Masson” for “hematoxylin and eosin”, “assay” for “assay (reference value: 6.28)”; type: functional
Mus musculus [13] = test: as §1, with “induction of improvement in lung texture at 60” for “induction of body weight recovery at 60”, “day 3 by hematoxylin and eosin staining based assay” for “day 3”; type: functional, organism-based

Row | IC50 (Autotaxin [1]) [nM] | SMILES | also measured
1 | 34.1 | CCn1cc(NC(=O)OCc2ccc3c(c2)OCO3)c2cc(-c3nc(CN4CCC(O)CC4)cs3)ccc21 | –
2 | 2530 | CCn1cc(C(=O)N/N=C(\C)c2ccc(F)cc2)c2cc(-c3nc(CN4CCN(C)CC4)cs3)ccc21 | –
3 | 1460 | CCn1cc(C(=O)N/N=C/c2ccc(OC)cc2)c2cc(-c3nc(CN4CCCCC4)cs3)ccc21 | –
4 | 613 | CCn1cc(NC(=O)OCc2cc(Cl)cc(Cl)c2)c2cc(-c3nc(CN4CCC(O)CC4)cs3)ccc21 | –
5 | 21.3 | CCn1cc(NC(=O)OCc2cc(Cl)cc(Cl)c2)c2cc(-c3nc(CN(CCO)CCO)cs3)ccc21 | –
6 | 1840 | CCn1cc(C(=O)N/N=C(\C)c2ccc(F)cc2)c2cc(-c3nc(CN4CCOCC4)cs3)ccc21 | –
7 | 1590 | CCN1CCN(Cc2csc(-c3ccc4c(c3)c(C(=O)N/N=C(\C)c3ccc(F)cc3)cn4CC)n2)CC1 | –
8 | 5240 | CN1CCN(Cc2csc(-c3ccc4c(c3)c(C(=O)N/N=C/c3ccc(F)cc3)cn4C)n2)CC1 | –
9 | 610 | CCn1cc(C(=O)N/N=C/c2ccc3c(c2)OCO3)c2cc(-c3nc(CN4CCC[C@H]4CO)cs3)ccc21 | –
10 | 1350 | CCN1CCN(Cc2csc(-c3ccc4c(c3)c(C(=O)N/N=C/c3ccc(F)cc3)cn4CC)n2)CC1 | –
11 | 15.7 | CCn1cc(C(=O)N/N=C(\C)c2ccc(F)cc2)c2cc(-c3nc(CN4CCC[C@H]4CO)cs3)ccc21 | –
12 | 62.7 | CCn1cc(NC(=O)OCc2cccc(Cl)c2Cl)c2cc(-c3nc(CN4CCN(CCO)CC4)cs3)ccc21 | –
13 | – | CCCC[C@@H](CCCC(=O)NO)NC(=O)CCCCC(=O)Nc1ccccc1 | IC50 (Autotaxin [2]): 60 nM
14 | 1170 | CCn1cc(C(=O)N/N=C/c2ccc(Cl)cc2)c2cc(-c3nc(CN4CCCC4)cs3)ccc21 | –
15 | 231 | CCn1cc(C(=O)N/N=C/c2ccc(Cl)cc2)c2cc(-c3nc(CN4CCN(CCO)CC4)cs3)ccc21 | –
16 | 2740 | CCn1cc(C(=O)N/N=C(\C)c2ccc(F)cc2)c2cc(-c3nc(CN4CCCC4)cs3)ccc21 | –
17 | 3960 | CCn1cc(C(=O)N/N=C/c2ccc(F)cc2)c2cc(-c3nc(CN4CCCCC4)cs3)ccc21 | –
18 | 740 | CN(C)Cc1csc(-c2ccc3[nH]cc(C(=O)O)c3c2)n1 | –
19 | > 10000 | CCn1cc(C(=O)N/N=C/c2ccc3c(c2)OCO3)c2cc(-c3nc(CN4CCC(C)CC4)cs3)ccc21 | –
20 | 30.7 | CCn1cc(NC(=O)OCc2ccc3c(c2)OCO3)c2cc(-c3nc(CN(CCO)CCO)cs3)ccc21 | –
21 | 122 | CCn1cc(NC(=O)OCc2ccccc2)c2cc(-c3nc(CN4CCC[C@H]4CO)cs3)ccc21 | –
22 | > 10000 | C/C(=N\NC(=O)c1cn(C)c2ccc(-c3nc(CN4CCN(C)CC4)cs3)cc12)c1ccc(F)cc1 | –
23 | 1.01 | CCn1cc(NC(=O)OCc2ccc(F)c(F)c2)c2cc(-c3nc(CN4CCC(O)CC4)cs3)ccc21 | Activity (Mus musculus [3]): Active; Activity (Mus musculus [4]): Active; Activity (Mus musculus [5]): 3.85 a.u.; Activity (Mus musculus [6]): 3.37 a.u.; inhibition (Mus musculus [7]): Dose-dependent effect; Activity_index (Mus musculus [8]): 4.66; Activity (Mus musculus [9]): Active; Activity_index (Mus musculus [10]): 3.2; Activity (Mus musculus [11]): Dose-dependent effect
24 | > 10000 | CCn1cc(C(=O)N/N=C/c2ccc(F)cc2)c2cc(-c3nc(CN4CCC(C)CC4)cs3)ccc21 | –
25 | 34.7 | CCn1cc(NC(=O)OCc2ccc3c(c2)OCO3)c2cc(-c3nc(CN4CCC[C@H]4CO)cs3)ccc21 | –
26 | 757 | CCn1cc(C(=O)N/N=C/c2ccc3c(c2)OCO3)c2cc(-c3nc(CN4CCN(C)CC4)cs3)ccc21 | –

Row | IC50 (Autotaxin [1]) [nM] | SMILES | also measured
27 | 297 | CCn1cc(NC(=O)OCc2ccc(F)c(F)c2)c2cc(-c3nc(CN4CCC[C@H]4CO)cs3)ccc21 | –
28 | 879 | CN1CCN(Cc2csc(-c3ccc4c(c3)c(C(=O)N/N=C/c3ccc5c(c3)OCO5)cn4C)n2)CC1 | –
29 | 127 | CCn1cc(NC(=O)OCc2cccc(Cl)c2Cl)c2cc(-c3nc(CN4CCC(O)CC4)cs3)ccc21 | –
30 | 508 | CCn1cc(C(=O)N/N=C(\C)c2ccc(F)cc2)c2cc(-c3nc(CN4CCN(CCO)CC4)cs3)ccc21 | –
31 | 2870 | Cn1cc(C(=O)N/N=C/c2ccc(F)cc2)c2cc(-c3nc(CN4CCOCC4)cs3)ccc21 | –
32 | > 10000 | Cn1cc(C(=O)N/N=C/c2ccc3c(c2)OCO3)c2cc(-c3nc(CN4CCOCC4)cs3)ccc21 | –
33 | > 10000 | Cn1cc(C(=O)N/N=C/c2ccc(Cl)cc2)c2cc(-c3nc(CN4CCOCC4)cs3)ccc21 | –
34 | 1320 | CCn1cc(C(=O)N/N=C/c2ccc3c(c2)OCO3)c2cc(-c3nc(CN4CCN(CCO)CC4)cs3)ccc21 | –
35 | > 10000 | CCn1cc(C(=O)N/N=C/c2ccc(OC)cc2)c2cc(-c3nc(CN4CCOCC4)cs3)ccc21 | –
36 | > 10000 | CCn1cc(C(=O)N/N=C/c2ccc3c(c2)OCO3)c2cc(-c3nc(CN4CCOCC4)cs3)ccc21 | –
37 | 36.9 | CCn1cc(NC(=O)O[C@H](C)c2ccc(C)cc2)c2cc(-c3nc(CN4CCC[C@H]4CO)cs3)ccc21 | –
38 | 199 | CCn1cc(NC(=O)O[C@H](C)c2ccccc2Cl)c2cc(-c3nc(CN4CCC[C@H]4CO)cs3)ccc21 | –
39 | 2310 | CCN1CCN(Cc2csc(-c3ccc4c(c3)c(C(=O)N/N=C/c3ccc(Cl)cc3)cn4CC)n2)CC1 | –
40 | 180 | CCn1cc(C(=O)N/N=C/c2ccc(Cl)cc2)c2cc(-c3nc(CN4CCC(O)CC4)cs3)ccc21 | –
41 | 0.43 | CCn1cc(NC(=O)OCc2cc(Cl)cc(Cl)c2)c2cc(-c3nc(CN4CCN(CCO)CC4)cs3)ccc21 | Activity (Mus musculus [3]): Active; Activity (Mus musculus [4]): Active; Activity (Mus musculus [5]): 3.43 a.u.; Activity (Mus musculus [6]): 3.25 a.u.; inhibition (Mus musculus [7]): Dose-dependent effect; Activity (Mus musculus [9]): Active; Activity_index (Mus musculus [10]): 2.04; Activity_index (Mus musculus [12]): 2.01
42 | 117 | CCn1cc(NC(=O)O[C@H](C)c2ccc(C)cc2)c2cc(-c3nc(CN4CCC(O)CC4)cs3)ccc21 | –
43 | 970 | CCn1cc(NC(=O)OCc2ccccc2)c2cc(-c3nc(CN4CCC(O)CC4)cs3)ccc21 | –
44 | 69.4 | CCn1cc(C(=O)N/N=C(\C)c2ccc(F)cc2)c2cc(-c3nc(CN4CCC(O)CC4)cs3)ccc21 | –
45 | 655 | CCn1cc(C(=O)N/N=C/c2ccc(F)cc2)c2cc(-c3nc(CN4CCC[C@H]4CO)cs3)ccc21 | –
46 | 906 | CCn1cc(C(=O)N/N=C/c2ccc(F)cc2)c2cc(-c3nc(CN4CCC(O)CC4)cs3)ccc21 | –
47 | 135 | CCn1cc(C(=O)N/N=C/c2ccc(F)cc2)c2cc(-c3nc(CN4CCN(CCO)CC4)cs3)ccc21 | –
48 | 1370 | CCn1cc(C(=O)N/N=C/c2ccc(F)cc2)c2cc(-c3nc(CN4CCOCC4)cs3)ccc21 | –
49 | 1550 | CCn1cc(C(=O)N/N=C/c2ccc3c(c2)OCO3)c2cc(-c3nc(CN4CCCCC4)cs3)ccc21 | –
50 | 107 | CCn1cc(C(=O)N/N=C/c2ccc3c(c2)OCO3)c2cc(-c3nc(CN4CCC(O)CC4)cs3)ccc21 | –
51 | 210 | CCn1cc(NC(=O)O[C@H](C)c2ccccc2Cl)c2cc(-c3nc(CN4CCC(O)CC4)cs3)ccc21 | –
52 | – | CCc1nc2c(C)cc(N3CCN(CC(=O)N4CC(O)C4)CC3)cn2c1N(C)c1nc(-c2ccc(F)cc2)c(C#N)s1 [ZIRITAXESTAT] | Activity (Mus musculus [3]): Active; Activity (Mus musculus [6]): 4.03 a.u.; Activity (Mus musculus [13]): Active
